Test results as given in patent US11352340B2, “Pyridine and pyridimine compounds as PI3K-gamma inhibitors” (Incyte Corporation, priority 2016, dated 2022).
Counter-ions that a name gives are not always drawn. Like-named read-outs stand apart in the source and are kept apart here.

What was measured:
[1] = biological target: PI3Kγ (p110γ) Recombinant Human Protein (Homo sapiens (Human), UniProt P48736); experiment: PI3K-γ Scintillation Proximity Assay; assay type: biochemical; settings: read-out: PI3K-gamma SPA IC50
Chain of PI3Kγ (p110γ) Recombinant Human Protein (P48736 whole entry): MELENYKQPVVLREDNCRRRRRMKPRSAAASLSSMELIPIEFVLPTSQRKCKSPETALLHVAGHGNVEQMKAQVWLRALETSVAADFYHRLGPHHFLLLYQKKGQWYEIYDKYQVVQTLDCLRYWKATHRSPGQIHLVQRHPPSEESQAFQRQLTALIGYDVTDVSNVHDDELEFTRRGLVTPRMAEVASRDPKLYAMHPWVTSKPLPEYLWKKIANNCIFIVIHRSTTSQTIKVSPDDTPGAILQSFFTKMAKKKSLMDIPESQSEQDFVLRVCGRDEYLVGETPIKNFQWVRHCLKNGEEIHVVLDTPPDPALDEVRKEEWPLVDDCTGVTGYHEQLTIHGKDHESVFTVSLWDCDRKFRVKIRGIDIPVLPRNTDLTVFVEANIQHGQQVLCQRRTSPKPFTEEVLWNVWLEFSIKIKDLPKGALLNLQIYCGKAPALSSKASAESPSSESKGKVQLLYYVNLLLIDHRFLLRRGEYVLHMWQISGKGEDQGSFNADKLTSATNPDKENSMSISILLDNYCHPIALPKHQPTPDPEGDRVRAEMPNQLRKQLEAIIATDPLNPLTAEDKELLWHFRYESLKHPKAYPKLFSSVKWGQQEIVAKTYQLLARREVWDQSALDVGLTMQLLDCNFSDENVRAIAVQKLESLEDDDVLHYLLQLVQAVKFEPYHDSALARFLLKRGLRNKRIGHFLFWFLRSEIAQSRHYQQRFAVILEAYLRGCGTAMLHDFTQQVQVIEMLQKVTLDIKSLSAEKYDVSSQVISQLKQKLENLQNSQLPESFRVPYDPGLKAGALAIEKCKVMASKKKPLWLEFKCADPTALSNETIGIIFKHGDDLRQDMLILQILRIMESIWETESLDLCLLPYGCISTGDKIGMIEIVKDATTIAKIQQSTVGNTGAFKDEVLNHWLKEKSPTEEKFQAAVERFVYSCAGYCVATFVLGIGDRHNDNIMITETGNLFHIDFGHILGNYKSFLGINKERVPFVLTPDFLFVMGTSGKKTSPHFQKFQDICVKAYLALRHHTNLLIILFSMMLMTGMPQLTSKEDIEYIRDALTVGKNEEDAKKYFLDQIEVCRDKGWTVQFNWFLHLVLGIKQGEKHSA
In short: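 Recombinant human p110γ (13 nM) with 20 μM PIP2 and 2 μM ATP plus 0.5 μCi [γ-33P]ATP in 20 mM MOPS pH 6.7, 10 mM MgCl2, 5 mM DTT, 0.03% CHAPS, 2% DMSO, 120 min at room temperature. Product captured on WGA SPA beads and counted; IC50 fitted from % of solvent control versus log concentration.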

[2] = biological target: PI3Kδ (p110δ/p85α) Recombinant Human Protein (Homo sapiens (Human), UniProt O00329); experiment: PI3Kδ Scintillation Proximity Assay; assay type: biochemical; settings: read-out: PI3K-delta SPA IC50
Chain of PI3Kδ (p110δ/p85α) Recombinant Human Protein (O00329 whole entry): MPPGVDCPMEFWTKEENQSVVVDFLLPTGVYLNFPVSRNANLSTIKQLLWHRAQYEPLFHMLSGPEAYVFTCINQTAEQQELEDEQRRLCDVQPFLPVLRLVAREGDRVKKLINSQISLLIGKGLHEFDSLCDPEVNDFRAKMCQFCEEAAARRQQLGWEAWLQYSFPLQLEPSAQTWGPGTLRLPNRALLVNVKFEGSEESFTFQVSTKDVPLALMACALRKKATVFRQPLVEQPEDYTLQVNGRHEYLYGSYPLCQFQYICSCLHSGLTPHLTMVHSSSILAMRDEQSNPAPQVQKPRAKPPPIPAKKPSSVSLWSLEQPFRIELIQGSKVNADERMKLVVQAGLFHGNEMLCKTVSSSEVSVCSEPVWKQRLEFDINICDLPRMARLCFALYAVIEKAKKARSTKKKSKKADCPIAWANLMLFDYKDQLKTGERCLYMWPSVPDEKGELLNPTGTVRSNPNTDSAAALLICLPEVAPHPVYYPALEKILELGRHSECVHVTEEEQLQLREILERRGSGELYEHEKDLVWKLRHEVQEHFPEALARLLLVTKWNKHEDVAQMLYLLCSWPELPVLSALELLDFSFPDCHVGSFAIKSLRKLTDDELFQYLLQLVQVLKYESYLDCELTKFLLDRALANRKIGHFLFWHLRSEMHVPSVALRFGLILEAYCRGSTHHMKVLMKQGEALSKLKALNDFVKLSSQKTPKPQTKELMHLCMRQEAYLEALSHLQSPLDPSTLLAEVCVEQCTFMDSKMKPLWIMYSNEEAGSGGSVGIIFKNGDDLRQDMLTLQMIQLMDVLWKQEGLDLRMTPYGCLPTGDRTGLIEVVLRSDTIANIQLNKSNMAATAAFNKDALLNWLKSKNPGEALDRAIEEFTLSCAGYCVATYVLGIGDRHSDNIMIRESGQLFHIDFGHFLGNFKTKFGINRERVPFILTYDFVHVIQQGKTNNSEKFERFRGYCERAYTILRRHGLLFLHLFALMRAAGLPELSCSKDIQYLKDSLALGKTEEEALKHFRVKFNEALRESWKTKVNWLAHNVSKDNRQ
Chain of PI3Kδ (p110δ/p85α) Recombinant Human Protein (P27986 whole entry partner): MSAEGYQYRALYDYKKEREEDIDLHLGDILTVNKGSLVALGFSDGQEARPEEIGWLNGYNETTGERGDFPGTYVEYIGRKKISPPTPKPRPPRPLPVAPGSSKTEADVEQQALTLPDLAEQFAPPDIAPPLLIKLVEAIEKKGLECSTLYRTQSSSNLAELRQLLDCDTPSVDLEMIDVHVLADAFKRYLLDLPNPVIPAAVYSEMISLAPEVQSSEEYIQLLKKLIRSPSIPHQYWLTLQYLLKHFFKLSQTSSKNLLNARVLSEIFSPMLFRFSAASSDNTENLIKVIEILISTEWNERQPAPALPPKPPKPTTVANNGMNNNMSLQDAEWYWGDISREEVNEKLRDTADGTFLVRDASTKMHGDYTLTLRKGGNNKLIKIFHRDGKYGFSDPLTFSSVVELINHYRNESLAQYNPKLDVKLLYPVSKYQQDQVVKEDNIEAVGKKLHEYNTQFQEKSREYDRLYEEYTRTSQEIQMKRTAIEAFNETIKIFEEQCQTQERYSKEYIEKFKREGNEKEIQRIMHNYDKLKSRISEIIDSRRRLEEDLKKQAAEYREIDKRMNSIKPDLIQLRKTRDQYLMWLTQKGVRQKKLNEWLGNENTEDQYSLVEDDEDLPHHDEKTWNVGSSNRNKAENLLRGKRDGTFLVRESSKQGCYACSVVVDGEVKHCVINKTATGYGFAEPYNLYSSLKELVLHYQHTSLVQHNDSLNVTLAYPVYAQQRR
In short: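 Kinase reaction run at room temperature in 20 mM MOPS pH 6.7, 10 mM MgCl2, 5 mM DTT, 0.03% CHAPS with 20 μM PIP2, 2 μM ATP plus [γ-33P]ATP, 3.4 nM enzyme, 2% DMSO; 120 min. Quenched with WGA SPA beads/EDTA, counted by scintillation; IC50 from % solvent-control activity vs log concentration.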

[3] = test system: Phosphorylated Ribosomal Protein S6 (RPS6) in THP-1 cells; experiment: THP-1 RPS6 ELISA Assay; assay type: cell-based, Human; settings: MCP-1 stimulated, phospho-RPS6 ELISA, read-out: THP p-RPS6 ELISA IC50
Protocol: Example A. THP-1 RPS6 ELISA Assay
To measure the Phosphorylated Ribosomal Protein S6 (RPS6) in cell lysates, THP-1 cells (Human Acute Monocytic Leukemia) are purchased from ATCC (Manassas, Va.) and maintained in RPMI with 10% FBS (Gibco/Life Technologies, Carlsbad, Calif.). For the assay, THP-1 cells are serum starved overnight in RPMI, then plated in RPMI (2×10^5 cells/well in 90 μL) into 96-well flat-bottom tissue culture treated plates (Corning, Corning, N.Y.), in the presence or absence of a concentration range of test compounds. Covered plates are incubated for 2 hours at 37° C., 5% CO2 then treated with or without 10 nM MCP-1 (MYBioSource, San Diego, Calif.) for 15 minutes at 37° C., 5% CO2. Plates are centrifuged at 1600 RPM and supernatants are removed. Cells are lysed in Lysis Buffer (Cell Signaling, Danvers, Mass.) with Protease Inhibitor (Calbiochem/EMD, Germany), PMSF (Sigma, St Louis Mo.), HALTS (Thermo Fisher, Rockford, Ill.) for 30 min on wet ice. Cell lysates are frozen at −80° C. before testing. The lysates are tested in the Human/Mouse/Rat Phospho-RPS6 ELISA (R&D Systems, Inc. Minn, Minn.). The plate is measured using a microplate reader (SpectraMax M5—Molecular Devices, LLC Sunnyvale, Calif.) set to 450 nm with a wavelength correction of 540. IC50 determination is performed by fitting the curve of inhibitor percent inhibition versus the log of the inhibitor concentration using the GraphPad Prism 5.0 software.

Row | IC50 [1] [nM] | IC50 [2] [nM] | IC50 ([3]; Homo sapiens) [nM] | Structure (SMILES) | IC50 [3] [nM]
1 | ≤ 50 | ≤ 50 | ≤ 300 | Cc1nc(-c2cc(-c3cncc(NC(C)c4ccccc4)c3)ccn2)[nH]c1C (racemic) [Example 145C, 2′-(4,5-Dimethyl-1H-imidazol-2-yl)-N-(1-phenylethyl)-3,4′-bipyridin-5-amine trifluoroacetate salt] | –
2 | ≤ 50 | ≤ 50 | ≤ 300 | Cc1nc(-c2cc(-c3cncc(C(=O)N4CCC4)c3)ccn2)[nH]c1C [Example 191, 5-(Azetidin-1-ylcarbonyl)-2′-(4,5-dimethyl-1H-imidazol-2-yl)-3,4′-bipyridine trifluoroacetate salt] | –
3 | ≤ 50 | ≤ 50 | 300 to 1000 | CS(=O)(=O)c1cncc(-c2ccnc(-c3ncc(-c4ccccn4)[nH]3)c2)c1 [Example 118, 5-(Methylsulfonyl)-2′-(5-(pyridin-2-yl)-1H-imidazol-2-yl)-3,4′-bipyridine] | –
4 | ≤ 50 | ≤ 50 | ≤ 300 | Cc1nc(-c2cc(-c3cncc(C(=O)N4CC[C@@H](F)C4)c3)ccn2)[nH]c1C [Example 155, (R)-(2′-(4,5-Dimethyl-1H-imidazol-2-yl)-3,4′-bipyridin-5-yl)(3-fluoropyrrolidin-1-yl)methanone trifluoroacetate salt] | –
5 | ≤ 500 | > 500 | > 5000 | CCCCNc1nnc(-c2cc(-c3cncc(OC)c3)ccn2)[nH]1 [Example 66, N-Butyl-5-(5-methoxy-3,4′-bipyridin-2′-yl)-4H-1,2,4-triazol-3-amine Trifluoroacetate Salt] | –
6 | ≤ 50 | ≤ 50 | ≤ 300 | Cc1[nH]c(-c2cc(-c3cncc(S(C)(=O)=O)c3)ccn2)nc1C(=O)NC1CCOCC1 [Example 254, 5-Methyl-2-[5-(methylsulfonyl)-3,4′-bipyridin-2′-yl]-N-(tetrahydro-2H-pyran-4-yl)-1H-imidazole-4-carboxamide trifluoroacetate salt] | –
7 | ≤ 50 | ≤ 50 | ≤ 300 | CS(=O)(=O)c1cncc(-c2ccnc(-c3ncc(Cc4ccccc4)[nH]3)c2)c1 [Example 115, 2′-(5-Benzyl-1H-imidazol-2-yl)-5-(methylsulfonyl)-3,4′-bipyridine trifluoroacetate salt] | –
8 | ≤ 50 | > 500 | > 5000 | Cc1[nH]c(-c2cc(-c3cnn(Cc4ccc(Cl)cc4)c3)ccn2)nc1C#N [Example 297, 2-{4-[1-(4-Chlorobenzyl)-1H-pyrazol-4-yl]pyridin-2-yl}-5-methyl-1H-imidazole-4-carbonitrile Trifluoroacetate Salt] | –
9 | ≤ 500 | > 500 | 1000 to 5000 | COc1cncc(-c2ccnc(-c3nc4ccccc4[nH]3)n2)c1 [Example 94, 2-[4-(5-Methoxypyridin-3-yl)pyrimidin-2-yl]-1H-benzimidazole Trifluoroacetate Salt] | –
10 | ≤ 100 | ≤ 500 | 1000 to 5000 | Cc1nc(-c2cc(-c3cncc(C(=O)NC(C)C)c3)ccn2)[nH]c1C [Example 157, 2′-(4,5-Dimethyl-1H-imidazol-2-yl)-N-isopropyl-3,4′-bipyridine-5-carboxamide trifluoroacetate salt] | –
11 | ≤ 50 | ≤ 50 | > 5000 | COc1cncc(-c2ccnc(-c3cnc(-c4ccccc4)[nH]3)c2)c1 [Example 74, 5-Methoxy-2′-(2-phenyl-1H-imidazol-5-yl)-3,4′-bipyridine] | –
12 | ≤ 100 | ≤ 50 | > 5000 | CS(=O)(=O)c1cncc(-c2ccnc(-c3nc(C4CCCCC4)c(N)[nH]3)c2)c1 [Example 120, 4-Cyclohexyl-2-[5-(methylsulfonyl)-3,4′-bipyridin-2′-yl]-1H-imidazol-5-amine Trifluoroacetate Salt] | –
13 | ≤ 50 | ≤ 50 | 300 to 1000 | Cc1nc(-c2cc(-c3cncc(C(=O)N4C[C@H](CO)[C@@H](C)C4)c3)ccn2)[nH]c1C [Example 172, ((3R,4R)-1-{[2′-(4,5-Dimethyl-1H-imidazol-2-yl)-3,4′-bipyridin-5-yl]carbonyl}-4-methylpyrrolidin-3-yl)methanol trifluoroacetate salt] | –
14 | ≤ 50 | ≤ 50 | 1000 to 5000 | Cc1[nH]c(-c2cc(-c3cncc(S(C)(=O)=O)c3)ccn2)nc1C(N)=O [Example 249, 5-Methyl-2-[5-(methylsulfonyl)-3,4′-bipyridin-2′-yl]-1H-imidazole-4-carboxamide trifluoroacetate salt] | –
15 | ≤ 50 | ≤ 100 | 300 to 1000 | Cc1nc(-c2cc(-c3cncc(C(=O)N4CCCC(O)C4)c3)ccn2)[nH]c1C (racemic) [Example 154, (2′-(4,5-Dimethyl-1H-imidazol-2-yl)-3,4′-bipyridin-5-yl)(3-hydroxypiperidin-1-yl)methanone] | –
16 | ≤ 50 | ≤ 50 | ≤ 300 | Cc1nc(-c2cc(-c3cncc(C4=CCN(S(C)(=O)=O)C4)c3)ccn2)[nH]c1C [Example 237, 2′-(4,5-Dimethyl-1H-imidazol-2-yl)-5-[1-(methylsulfonyl)-2,5-dihydro-1H-pyrrol-3-yl]-3,4′-bipyridine] | –
17 | ≤ 50 | ≤ 50 | 300 to 1000 | Cc1[nH]c(-c2cc(-c3cncc(N4CCOCC4)c3)ccn2)nc1C(=O)NC1Cc2ccccc2C1 [Example 282, N-(2,3-Dihydro-1H-inden-2-yl)-5-methyl-2-(5-morpholin-4-yl-3,4′-bipyridin-2′-yl)-1H-imidazole-4-carboxamide trifluoroacetate salt] | –
18 | ≤ 50 | ≤ 50 | > 5000 | COCC(=O)Nc1cncc(-c2ccnc(-c3ncc(-c4ccccc4)[nH]3)c2)c1 [Example 131, 2-Methoxy-N-[2′-(5-phenyl-1H-imidazol-2-yl)-3,4′-bipyridin-5-yl]acetamide Trifluoroacetate Salt] | –
19 | ≤ 500 | ≤ 500 | – | CC(C)c1cnc(-c2cc(-c3cncc(N4CCOCC4)c3)ccn2)[nH]1 [Example 101, 4-(2′-(5-Isopropyl-1H-imidazol-2-yl)-3,4′-bipyridin-5-yl)morpholine trifluoroacetate salt] | –
20 | > 500 | > 500 | – | COc1cncc(-c2ccnc(-c3nc(C(=O)O)c(C(F)(F)F)[nH]3)c2)c1 [Example 81, 2-(5-Methoxy-3,4′-bipyridin-2′-yl)-5-(trifluoromethyl)-1H-imidazole-4-carboxylic acid trifluoroacetate salt] | –
21 | > 500 | > 500 | – | c1ccc(-c2cnc(-c3cc(-c4cnn(CCN5CCOCC5)c4)ccn3)[nH]2)cc1 [Example 26, 4-(2-(4-(2-(5-Phenyl-1H-imidazol-2-yl)pyridin-4-yl)-1H-pyrazol-1-yl)ethyl)morpholine trifluoroacetate salt] | –
22 | ≤ 500 | ≤ 50 | – | Cc1[nH]c(-c2cc(-c3cncc(N4CCOCC4)c3)ccn2)nc1C(=O)N[C@@H]1CCN(Cc2ccccc2)C1 [Example 280, N-[(3R)-1-Benzylpyrrolidin-3-yl]-5-methyl-2-(5-morpholin-4-yl-3,4′-bipyridin-2′-yl)-1H-imidazole-4-carboxamide trifluoroacetate salt] | –
23 | ≤ 500 | ≤ 50 | – | Cc1nc(-c2cc(-c3cncc(C(=O)NCCC4CCOCC4)c3)ccn2)[nH]c1C [Example 164, 2′-(4,5-Dimethyl-1H-imidazol-2-yl)-N-(2-(tetrahydro-2H-pyran-4-yl)ethyl)-3,4′-bipyridine-5-carboxamide trifluoroacetate salt] | –

Row | Structure (SMILES) | IC50 [1] [nM] | IC50 [2] [nM] | IC50 ([3]; Homo sapiens) [nM] | IC50 [3] [nM]
24 | Cc1c[nH]c(-c2cc(-c3cncc(S(=O)(=O)N[C@H]4CC[C@H](O)CC4)c3)ccn2)n1 [Example 299, N-((1r,4r)-4-Hydroxycyclohexyl)-2′-(4-methyl-1H-imidazol-2-yl)-[3,4′-bipyridine]-5-sulfonamide trifluoroacetate salt] | ≤ 50 | ≤ 50 | – | ≤ 300
25 | Cc1[nH]c(-c2cc(-c3cncc(S(C)(=O)=O)c3)ccn2)nc1C(=O)N1CCOCC1 [Example 244, 2′-[5-Methyl-4-(morpholin-4-ylcarbony1)-1H-imidazol-2-yl]-5-(methylsulfony1)-3,4′-bipyridine] | ≤ 100 | ≤ 50 | – | > 5000
